Laboratory results taken from the NIST ThermoML archive (doi:10.1021/je301283e).
Numbers after ± are expanded uncertainties.

Details: Liquid, Vibrating tube method

CCCCCCC [heptane]
mass density [kg/m3]
Details | 313.15 K | 333.15 K | 353.15 K | 373.15 K | 393.15 K
340 kPa | 667.1 ± 1.4 | 649.7 ± 1.4 | 631.8 ± 1.4 | 613.1 ± 1.4 | 593.4 ± 1.4
690 kPa | 667.5 ± 1.4 | 650.2 ± 1.4 | 632.3 ± 1.4 | 613.7 ± 1.4 | 594.1 ± 1.4
1030 kPa | 667.8 ± 1.4 | 650.6 ± 1.4 | 632.8 ± 1.4 | 614.3 ± 1.4 | 594.9 ± 1.4
1380 kPa | 668.2 ± 1.4 | 651 ± 1.4 | 633.3 ± 1.4 | 614.9 ± 1.4 | 595.6 ± 1.4
1720 kPa | 668.64 ± 1.4 | 651.4 ± 1.4 | 633.9 ± 1.4 | 615.5 ± 1.4 | 596.3 ± 1.4
2070 kPa | 669 ± 1.4 | 651.9 ± 1.4 | 634.4 ± 1.4 | 616.1 ± 1.4 | 597 ± 1.4
2410 kPa | 669.3 ± 1.4 | 652.3 ± 1.4 | 634.9 ± 1.4 | 616.7 ± 1.4 | 597.8 ± 1.4
2760 kPa | 669.8 ± 1.4 | 652.7 ± 1.4 | 635.3 ± 1.4 | 617.3 ± 1.4 | 598.5 ± 1.4
3100 kPa | 670.1 ± 1.4 | 653.2 ± 1.4 | 635.8 ± 1.4 | 618.2 ± 1.4 | 599.2 ± 1.4
3450 kPa | 670.4 ± 1.4 | 653.6 ± 1.4 | 636.3 ± 1.4 | 618.5 ± 1.4 | 599.9 ± 1.4
3800 kPa | 670.8 ± 1.4 | 654 ± 1.4 | 636.8 ± 1.4 | 619 ± 1.4 | 600.5 ± 1.4
4140 kPa | 671.2 ± 1.4 | 654.4 ± 1.4 | 637.3 ± 1.4 | 619.6 ± 1.4 | 601.2 ± 1.4
4480 kPa | 671.6 ± 1.4 | 654.8 ± 1.4 | 637.7 ± 1.4 | 620.2 ± 1.4 | 601.9 ± 1.4
4830 kPa | 671.9 ± 1.4 | 655.2 ± 1.4 | 638.2 ± 1.4 | 620.7 ± 1.4 | 602.5 ± 1.4
5170 kPa | 672.2 ± 1.4 | 655.6 ± 1.4 | 638.7 ± 1.4 | 621.2 ± 1.4 | 603.2 ± 1.4
5510 kPa | 672.6 ± 1.4 | 656 ± 1.4 | 639.2 ± 1.4 | 621.8 ± 1.4 | 603.8 ± 1.4
5860 kPa | 672.9 ± 1.4 | 656.4 ± 1.4 | 639.6 ± 1.4 | 622.3 ± 1.4 | 604.4 ± 1.4
6200 kPa | 673.3 ± 1.4 | 656.8 ± 1.4 | 640.1 ± 1.4 | 622.9 ± 1.4 | 605.1 ± 1.4
6550 kPa | 673.6 ± 1.4 | 657.2 ± 1.4 | 640.6 ± 1.4 | 623.4 ± 1.4 | 605.7 ± 1.4
6890 kPa | 674 ± 2 | 657.6 ± 1.4 | 641 ± 1.4 | 623.9 ± 1.4 | 606.3 ± 1.5
7240 kPa | 674.3 ± 1.4 | 658 ± 1.4 | 641.5 ± 1.4 | 624.4 ± 1.4 | 606.9 ± 1.5
7580 kPa | – | 658.4 ± 1.4 | 641.9 ± 1.4 | 625 ± 1.5 | 607.5 ± 1.5
7930 kPa | – | 658.8 ± 1.4 | 642.3 ± 1.4 | 625.5 ± 1.5 | 608.1 ± 1.5
8270 kPa | – | 659.2 ± 1.4 | 642.8 ± 1.4 | 626 ± 1.5 | 608.7 ± 1.5
8620 kPa | – | – | 643.2 ± 1.5 | 626.5 ± 1.5 | 609.3 ± 1.5
8960 kPa | – | – | 643.9 ± 1.5 | 627 ± 1.5 | 609.9 ± 1.5
9310 kPa | – | – | 644.1 ± 1.5 | 627.5 ± 1.5 | 610.8 ± 1.5
9650 kPa | – | – | 644.5 ± 1.5 | 628 ± 1.5 | 611.1 ± 1.5
